The values that follow come from patent US20070167495A1, “Pleuromutilin derivatives, process for their preparation and uses thereof” (GLAXO[…] UNLIMITED, priority 2003, published 2007).

In assay [1] the test system is Staphylococccus aureus Oxford. Put plainly: Antibacterial activity, MIC against Staphylococccus aureus Oxford. The assay is classed as cell-based, Staphylococcus aureus.
Assay [2] deals with Streptococcus pneumoniae 1629. As to the kind of experiment: Antibacterial activity, MIC against Streptococcus pneumoniae 1629. The assay is classed as cell-based.
For assay [3] the following is noted: literature background (Egger and Reinshagen, J. Antibiotics 1976); cited from earlier work.

`C=C[C@]1(C)C[C@@H](OC(=O)CSc2ccccc2C(=O)O)[C@]2(C)[C@H](C)CC[C@]3(CCC(=O)[C@H]32)[C@@H](C)[C@@H]1O` [(2-carboxylato-phenylsulfanyl)-acetic acid mutilin 14-ester]: the MIC is reported as 0.5 micrograms per millillitre in assay [1] and 8 micrograms per millillitre in assay [2]. Also, the antibacterial activity result in assay [3] is “inferior in activity even to the parent substance pleuromutilin”. Take `C=C[C@]1(C)C[C@@H](O)[C@]2(C)[C@H](C)CC[C@]3(CCC(=O)[C@H]32)[C@@H](C)[C@@H]1O` [Mutilin]: the antibacterial activity entry in assay [3] was “inactive”. For `C=C[C@]1(C)C[C@@H](OC(=O)CO)[C@]2(C)[C@H](C)CC[C@]3(CCC(=O)[C@H]32)[C@@H](C)[C@@H]1O` [Pleuromutilin], in assay [3], the antibacterial activity entry is reported as “modest antibacterial activity”. Regarding “(4-Carboxylato-phenylsulfanyl)-acetic acid mutilin 14-ester [Example 1]”, the values for the MIC in assay [1] and in assay [2] were 0.125 micrograms per millillitre and 0.5 micrograms per millillitre, respectively.
